In US10639284B2, “Immunomodulator compounds” (CHEMOCENTRYX, INC., priority 2016, dated 2020) one finds IC50 data, which are given here for 53 molecules.

Some results are limits rather than exact numbers.

human PD-L1 / Human PD-1, sequence (Q9NZQ7 19-239): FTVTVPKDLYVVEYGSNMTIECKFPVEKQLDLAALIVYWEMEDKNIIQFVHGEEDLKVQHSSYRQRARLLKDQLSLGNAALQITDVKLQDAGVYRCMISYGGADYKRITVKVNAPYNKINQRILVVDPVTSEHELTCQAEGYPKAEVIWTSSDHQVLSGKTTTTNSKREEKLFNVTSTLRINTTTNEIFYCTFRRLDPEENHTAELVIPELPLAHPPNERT

This assay deals with human PD-L1 / Human PD-1 (Homo sapiens (Human), UniProt Q9NZQ7). The experiment in a line: Enzyme-Linked Immunosorbent Assay (ELISA), PD-1/PD-L1 binding. Particulars: Table 2; plate-coated human PD-L1, biotinylated human PD-1; read-out: ELISA IC50. The procedure:
Plates were coated with 1 μg/mL of human PD-L1 (obtained from R&D) in PBS overnight at 4° C. The wells were then blocked with PBS containing 2% BSA in PBS (W/V) with 0.05% TWEEN-20 for 1 hour at 37° C. The plates were washed 3 times with PBS/0.05% TWEEN-20 and the samples were diluted to 1:5 in dilution medium in the ELISA plates. Human PD-1 and biotin 0.3 μg/mL (ACRO Biosystems) were added and incubated for 1 hour at 37° C. then washed 3 times with PBS/0.05% TWEEN-20. A second block was added with PBS containing 2% BSA in PBS (W/V)/0.05% TWEEN-20 for 10 min at 37° C. and was washed 3 times with PBS/0.05% TWEEN-20. Streptavidin-HRP was added for 1 hour at 37° C. then washed 3 times with PBS/0.05% TWEEN-20. TMB substrate was added and reacted for 20 min at 37° C. A stop solution (2 N aqueous H2SO4) was added. The absorbance was read at 450 nm using a micro-plate spectrophotometer.
Compounds in Table 2 and Table 3 were prepared by methods as described in the Examples, and evaluated according to the assay below.
For `N#Cc1cncc(COc2cc(O[C@H]3CCc4c(-c5ccccc5F)cccc43)c(Cl)cc2CN2CCC(O)CC2)c1` [Example 2.029], the IC50 is under 0.1 µM.
In the case of `N#Cc1cncc(COc2cc(O[C@H]3CCc4c(-c5ccccc5F)cccc43)c(Cl)cc2CN2CCCC(O)C2)c1` (some centres unmarked) [Example 2.030] it was 0.1 to 0.5 µM; in that of `CN(C)Cc1cc(Cl)c(O[C@H]2CCc3c(-c4ccccc4F)cccc32)cc1OCc1cncc(C#N)c1` [Example 2.031], under 0.1 µM; in that of `N#Cc1cncc(COc2cc(O[C@H]3CCc4c(-c5ccccc5F)cccc43)c(Cl)cc2CN2CCC(C(=O)O)C2)c1` (some centres unmarked) [Example 2.032], under 0.1 µM.
As for `CC(C)c1cccc(-c2cccc3c2CC[C@@H]3Oc2cc(OCc3cncc(C#N)c3)c(CN[C@@H](CO)C(=O)O)cc2Cl)c1` [Example 2.033], the figure is 0.5 to 20 µM.
As for `CC(C)c1ccccc1-c1cccc2c1CC[C@@H]2Oc1cc(OCc2cncc(C#N)c2)c(CN[C@@H](CO)C(=O)O)cc1Cl` [Example 2.034], the figure is 0.1 to 0.5 µM; as for `CCc1ccccc1-c1cccc2c1CC[C@@H]2Oc1cc(OCc2cncc(C#N)c2)c(CN[C@@H](CO)C(=O)O)cc1Cl` [Example 2.035], 0.1 to 0.5 µM; as for `CCOc1cc(O[C@H]2CCc3c(-c4ccccc4F)cccc32)c(Cl)cc1CN[C@@H](CO)C(=O)O` [Example 2.036], under 0.1 µM.
In the case of `N#Cc1cncc(COc2cc(O[C@H]3CCc4c(-c5ccccc5F)cccc43)c(Cl)cc2CN2CC(O)C2)c1` [Example 2.037], the IC50 is under 0.1 µM.
On to `O=C(O)[C@H](CO)NCc1cc(Cl)c(O[C@H]2CCc3c(-c4ccccc4F)cccc32)cc1OCC1CC1` [Example 2.038], for which the IC50 was 0.1 to 0.5 µM.
As for `COc1cc(O[C@H]2CCc3c(-c4ccc5c(c4)OCCO5)cccc32)c(Cl)cc1CN[C@@H](CO)C(=O)O` [Example 2.039], the figure is under 0.1 µM; as for `COc1cc(O[C@H]2CCc3c(-c4cccc(OC)c4F)cccc32)c(Cl)cc1CN[C@@H](CO)C(=O)O` [Example 2.040], under 0.1 µM.
As for `COc1cc(O[C@H]2CCc3c(-c4cccc(OC)c4F)cccc32)c(Cl)cc1CN1CC(O)C1` [Example 2.041], the figure is 0.5 to 20 µM; as for `COc1cc(O[C@H]2CCc3c(-c4ccc5c(c4)OCCO5)cccc32)c(Cl)cc1CN1CC(O)C1` [Example 2.042], 0.5 to 20 µM; as for `COc1cccc(-c2cccc3c2CC[C@@H]3Oc2cc(OCc3cncc(C#N)c3)c(CN[C@@H](CO)C(=O)O)cc2Cl)c1Cl` [Example 2.043], under 0.1 µM.
On to `COc1ccc(-c2cccc3c2CC[C@@H]3Oc2cc(OCc3cncc(C#N)c3)c(CN[C@@H](CO)C(=O)O)cc2Cl)c(F)c1` [Example 2.044], for which the IC50 was in the range of 0.1 to 0.5 µM.
Consider `COc1ccc(F)c(-c2cccc3c2CC[C@@H]3Oc2cc(OCc3cncc(C#N)c3)c(CN[C@@H](CO)C(=O)O)cc2Cl)c1` [Example 2.045], for which the IC50 was under 0.1 µM.
With `Cc1cccc(-c2cccc3c2CC[C@@H]3Oc2cc(OCc3cncc(C#N)c3)c(CN[C@@H](CO)C(=O)O)cc2Cl)c1F` [Example 2.046], the IC50 is under 0.1 µM.
Turning to `COc1cccc(-c2ccc(F)c3c2CCC3Oc2cc(OCc3cncc(C#N)c3)c(CN[C@@H](CO)C(=O)O)cc2Cl)c1F` (some centres unmarked) [Example 2.047], the 50% inhibitory concentration (IC50) was under 0.1 µM.
As for `CCOc1cc(O[C@H]2CCc3c(-c4cccc(OC)c4F)cccc32)c(Cl)cc1CN[C@@H](CO)C(=O)O` [Example 2.048], the figure is under 0.1 µM.
As for `COc1cccc(-c2cccc3c2CC(C)C3Oc2cc(OCc3cncc(C#N)c3)c(CN[C@@H](CO)C(=O)O)cc2Cl)c1F` (some centres unmarked) [Example 2.049], the IC50 fell in the range of 0.5 to 20 µM.
Regarding `N#Cc1cncc(COc2cc(O[C@H]3CCc4c(-c5ccc6c(c5)OCCO6)cccc43)c(Cl)cc2CN2CC(O)C2)c1` [Example 2.050], the IC50 was under 0.1 µM.
In the case of `COc1cccc(-c2cccc3c2CC[C@@H]3Oc2cc(OCc3cncc(C#N)c3)c(CN3CC(O)C3)cc2Cl)c1F` [Example 2.051] it was under 0.1 µM; in that of `COc1cccc(-c2cccc3c2CC[C@@H]3Oc2cc(OCc3cncc(C#N)c3)c(CN3CCC(O)CC3)cc2Cl)c1F` [Example 2.052], 0.1 to 0.5 µM.
As for `COc1cccc(-c2cccc3c2CC[C@@H]3Oc2cc(OCc3cncc(C#N)c3)c(CNCc3n[nH]c(=O)[nH]3)cc2Cl)c1F` [Example 2.053], the figure is 0.1 to 0.5 µM.
As to `COc1cccc(-c2cccc3c2CC[C@@H]3Oc2cc(OCc3cncc(C#N)c3)c(CNCc3noc(=O)[nH]3)cc2Cl)c1F` [Example 2.054], the IC50 was 0.5 to 20 µM.
In the case of `COc1cccc(-c2cccc3c2CC[C@@H]3Oc2cc(OCc3cncc(C#N)c3)c(CN3CCC[C@@H](O)C3)cc2Cl)c1F` [Example 2.055] it was 0.1 to 0.5 µM; in that of `CCOc1cc(O[C@H]2CCc3c(-c4ccc5c(c4F)OCCO5)cccc32)c(Cl)cc1CN[C@@H](CO)C(=O)O` [Example 2.056], under 0.1 µM.
In the case of `N#Cc1cncc(COc2cc(O[C@H]3CCc4c(-c5ccc6c(c5F)OCCO6)cccc43)c(Cl)cc2CN[C@@H](CO)C(=O)O)c1` [Example 2.057] it was under 0.1 µM.
Turning to `N#Cc1cncc(COc2cc(O[C@H]3CCc4c(-c5ccc6c(c5F)OCCO6)cccc43)c(Cl)cc2CN2CCC(O)CC2)c1` [Example 2.058], the IC50 was under 0.1 µM.
As for `CCOc1cc(O[C@H]2CCc3c(-c4ccc5c(c4F)OCCO5)cccc32)c(Cl)cc1CN1CCC(O)CC1` [Example 2.059], the IC50 lay within 0.5 to 20 µM.
For `COc1cccc(-c2cccc3c2CC[C@@H]3Oc2cc(OCc3cncc(C#N)c3)c(CN3CCC[C@H](O)C3)cc2Cl)c1F` [Example 2.060], the IC50 was 0.1 to 0.5 µM.
In the case of `CCOc1cc(O[C@H]2CCc3c(-c4ccccc4F)cccc32)c(Cl)cc1CN1CCC(O)CC1` [Example 2.061] it was 0.5 to 20 µM; in that of `N#Cc1cncc(COc2cc(O[C@H]3CCc4c(-c5cc(C#N)ccc5F)cccc43)c(Cl)cc2CN[C@@H](CO)C(=O)O)c1` [Example 2.062], 0.5 to 20 µM.
In the case of `N#Cc1cncc(COc2cc(O[C@H]3CCc4c(-c5ccccc5F)cccc43)c(Cl)cc2CNCP(=O)(O)O)c1` [Example 2.063] it was under 0.1 µM.
In the case of `COc1cccc(-c2cccc3c2CC[C@@H]3Oc2cc(OCc3cncc(C#N)c3)c(CN3CC(O)C(C(=O)O)C3)cc2Cl)c1F` (some centres unmarked) [Example 2.064], the IC50 was under 0.1 µM.
As for `COc1ccc(Cl)c(-c2cccc3c2CC[C@@H]3Oc2cc(OCc3cncc(C#N)c3)c(CN[C@@H](CO)C(=O)O)cc2Cl)c1` [Example 2.065], the figure is under 0.1 µM.
Regarding `COc1cccc(-c2cccc3c2CC[C@@H]3Oc2cc(OCc3cncc(C#N)c3)c(CNCc3ccc(B(O)O)cc3)cc2Cl)c1F` [Example 2.066], the IC50 is 0.5 to 20 µM.
As for `Cc1ccc(F)c(-c2cccc3c2CC[C@@H]3Oc2cc(OCc3cncc(C#N)c3)c(CN[C@@H](CO)C(=O)O)cc2Cl)c1` [Example 2.067], the figure is under 0.1 µM.
Regarding `Cc1ccc(-c2cccc3c2CC[C@@H]3Oc2cc(OCc3cncc(C#N)c3)c(CN[C@@H](CO)C(=O)O)cc2Cl)c(F)c1` [Example 2.068], the IC50 fell in the range of 0.1 to 0.5 µM.
In the case of `N#Cc1cncc(COc2cc(O[C@H]3CCc4c(-c5cccc(OC(F)(F)F)c5F)cccc43)c(Cl)cc2CN[C@@H](CO)C(=O)O)c1` [Example 2.069] it was 0.5 to 20 µM.
As for `N#Cc1cncc(COc2cc(O[C@H]3CCc4c(-c5ccc6c(c5F)OCCO6)cccc43)c(Cl)cc2CN2CC(O)C2)c1` [Example 2.070], the IC50 is under 0.1 µM.
As for `COc1cccc(-c2cccc3c2CC[C@@H]3Oc2cc(OCc3cncc(C#N)c3)c(CN3CCC(O)CC3)cc2Cl)c1Cl` [Example 2.071], the figure is 0.1 to 0.5 µM; as for `COc1cccc(-c2cccc3c2CC[C@@H]3Oc2cc(OCc3cncc(C#N)c3)c(CN3CC(O)C3)cc2Cl)c1Cl` [Example 2.072], 0.1 to 0.5 µM; as for `COc1cccc(-c2cccc3c2CC[C@@H]3Oc2cc(OCc3cncc(C#N)c3)c(CN3C[C@H](O)C[C@@H]3C(=O)O)cc2Cl)c1F` [Example 2.073], under 0.1 µM.
In the case of `CCCOc1cc(O[C@H]2CCc3c(-c4ccccc4F)cccc32)c(Cl)cc1CN[C@@H](CO)C(=O)O` [Example 2.074], the half-maximal inhibitory concentration (IC50) was 0.1 to 0.5 µM.
As for `CC1(O)CCN(Cc2cc(Cl)c(O[C@H]3CCc4c(-c5ccccc5F)cccc43)cc2OCc2cncc(C#N)c2)CC1` [Example 2.075], the figure is 0.1 to 0.5 µM; as for `Cc1cccc(-c2cccc3c2CC[C@@H]3Oc2cc(OCc3cncc(C#N)c3)c(CN3CC(O)C3)cc2Cl)c1F` [Example 2.076], 0.1 to 0.5 µM; as for `COc1ccc(F)c(-c2cccc3c2CC[C@@H]3Oc2cc(OCc3cncc(C#N)c3)c(CN3CC(O)C3)cc2Cl)c1` [Example 2.077], 0.1 to 0.5 µM.
As for `COc1cccc(-c2cccc3c2CC[C@@H]3Oc2cc(OCc3cncc(C#N)c3)c(CNCCS(N)(=O)=O)cc2Cl)c1F` [Example 2.078], the figure is 0.5 to 20 µM.
In the case of `COc1ccc(F)c(-c2cccc3c2CC[C@@H]3Oc2cc(OCc3cncc(C#N)c3)c(CN3CCC(O)CC3)cc2Cl)c1` [Example 2.079] it was 0.1 to 0.5 µM; in that of `COc1cccc(-c2cccc3c2CCC3Oc2cc(OCc3cncc(C#N)c3)c(CNCCC(N)=O)cc2Cl)c1F` (centres unmarked) [Example 2.080], 0.1 to 0.5 µM.
In the case of `COc1cccc(-c2cccc3c2CC[C@@H]3Oc2cc(OCc3cncc(C#N)c3)c(CN3CCC(CO)CC3)cc2Cl)c1Cl` [Example 2.081], the IC50 fell in the range of 0.1 to 0.5 µM.
